From patent US7906332B2, “Method of preparing basement membrane, method of constructing basement membrane specimen, reconstituted artificial tissue using the basement membrane specimen and process for producing the same” (Japan Science And Technology Agency, priority 2001, dated 2011)

Tests used:
[1] = test system: type II alveolar epithelial cells; test: Basement membrane formation by alveolar epithelial cells on collagen fiber (fib) with Matrigel or TGF-β (T2-fib-MG, T2-fib-TGFβ); assay type: cell-based, rat; conditions: fibrous collagen substratum, TGF-β in upper and lower wells (T2-fib-TGFβ)
Source text: The present inventors made a study on a process to form a basement membrane structure just beneath the basal surface of epithelial cells on a fibrous collagen matrix by the coculture with fibroblasts-embedded collagen gel, and by the culture in the presence of TGF-β or Matrigel. […] However, it was also confirmed that type II alveolar epithelial cells were unable to constitute a basement membrane without the supply of, for example, a fibroblast, exogenous basement membrane components from Matrigel or a growth factor TGF-β, since the endogenous basement membrane components from type II alveolar epithelial cells are not enough for the cells to assemble a basement membrane structure effectively. […]

[2] = test system: alveolar epithelial cells; test: Construction of a basement membrane according to the MMP inhibition method; assay type: cell-based; conditions: 2 weeks on fib, 1% fetal bovine serum, no basement membrane components added
Experimental: Alveolar epithelial cells were cultured on collagen fiber (fib) with the only addition of 1% fetal bovine serum and synthetic inhibitor of matrix metalloproteinase (MMP) and without the addition of basement membrane components for 2 weeks. As MMP inhibitor, GM6001 (Calbiochem) and MMP-2/MMP-9 inhibitor I (Calbiochem) were used. 1.1 μM of GM6001 and 310 μM of MMP-2/MMP-9 inhibitor I (2/9 inhibitor) were added respectively.

For TGF-β, the “basement membrane formation by type II alveolar epithelial cells” value [1] was “a basement membrane was formed”.
In the case of `CNC(=O)[C@H](Cc1c[nH]c2ccccc12)NC(=O)[C@@H](CC(=O)NO)CC(C)C` [GM6001], the “basement membrane structure formation beneath the cells” value ([2]; 1.1 μM) is reported as “complete basement membrane structure (▴) was formed”.
`O=C(O)[C@@H](Cc1ccccc1)NS(=O)(=O)c1ccc(-c2ccccc2)cc1` [MMP-2/MMP-9 inhibitor I] was tested, and the “basement membrane structure formation beneath the cells” value ([2]; 310 μM) was “complete basement membrane structure (▴) was formed”.
